The values below come from US20240016783A1 (Icahn School of Medicine at Mount Sinai, priority 2020, published 2024).

Series [1] deals with Alzheimer's disease patients. The note with it: in vivo.
Another series concerns rodent models. The note with it: cited from earlier work.
The test system of a further series is rodents. Conditions: through clustering of dendritic spines; cited from earlier work.
The test system of series [2] is mouse model of AD (SXFAD). Conditions: early-onset aggressive mouse model of AD (SXFAD); cited from earlier work.

Turning to `Nc1nc2ccc(OC(F)(F)F)cc2s1` [Riluzole, 2-Amino-6-(trifluoromethoxy)benzothiazole], in series [1] (human, 6 months), the Abdominal discomfort was 15.4%, the “Adverse event that led to removal from the trial” value is recorded as 15.4%, the Cough worked out at 19.23% and the Diarrhea is reported as 15.4%. In series [1] (human, 6 months), the Dizziness is 15.4%, the Elevated liver enzymes is recorded as 7.7%, the Nausea is recorded as 7.7% and the “Patients having at least one adverse event during the study” value is given as 88.5%. In addition, in series [1] (human, 6 months), the Serious adverse events stood at 7.7% and the Urinary frequency stood at 11.5%. The “Difference in adverse events between treatment groups” value in series [1] is “no statistical differences”. For the same compound, the “Gene expression profiles related to aging and AD” value in the series on rodent models was “rescues gene expression profiles related to aging and AD”. Besides, the Age-related cognitive decline entry with rodents was “can prevent age-related cognitive decline”. Also, in series [2], the “Gene expression changes in immune pathways” value is recorded as “reversed many of the gene expression changes in immune pathways” and the “Hippocampal-dependent spatial memory decline” value is “prevented hippocampal-dependent spatial memory decline”.
